Assay results published in ChEMBL document CHEMBL2203011, “Psammaplysin derivatives from the Balinese marine sponge Aplysinella strongylata” (J Nat Prod, 2012).
Activity calls are given as the source filed them. The rule behind the calls is not given here.

Key:
Plasmodium falciparum [1] = assay: Antiplasmodial activity against chloroquine-sensitive Plasmodium falciparum 3D7 infected in erythrocytes assessed as growth inhibition at 10 uM incubated for 48 hrs by [3H]hypoxanthine incorporation assay; type: functional, organism-based
Plasmodium falciparum [2] = assay: Antiplasmodial activity against chloroquine-sensitive Plasmodium falciparum 3D7 infected in erythrocytes assessed as growth inhibition incubated for 48 hrs by [3H]hypoxanthine incorporation assay; type: functional, organism-based

SMILES | growth inhibition (GI) (Plasmodium falciparum [1]) | IC50 (Plasmodium falciparum [2]) [µM]
COC1=C(Br)C[C@]2(OC=C1Br)ON=C(C(=O)NCCCOc1c(Br)cc(C(O)CNC=C3C(=O)C=CC3=O)cc1Br)[C@@H]2O (some centres undefined) | Active | 6.4
COC1=C(Br)C[C@]2(OC=C1Br)ON=C(C(=O)NCCCOc1c(Br)cc(CCNC(=O)CCCCCCCCCCCCC(C)C)cc1Br)[C@@H]2O | inactive | –
CCCCC/C=C\CCCCCCCCC(=O)NCCc1cc(Br)c(OCCCNC(=O)C2=NO[C@@]3(CC(Br)=C(OC)C(Br)=CO3)[C@H]2O)c(Br)c1 | inactive | –
COC1=C(Br)C[C@]2(OC=C1Br)ON=C(C(=O)NCCCOc1c(Br)cc(C=O)cc1Br)[C@@H]2O | inactive | –
COC1=C(Br)C[C@]2(OC=C1Br)ON=C(C(=O)NCCCOc1c(Br)cc(CCNC(=O)CO)cc1Br)[C@@H]2O | inactive | –
CCCCCCCCCCCCCCCCCC(=O)NCC(O)c1cc(Br)c(OCCCNC(=O)C2=NO[C@@]3(CC(Br)=C(OC)C(Br)=CO3)[C@H]2O)c(Br)c1 (some centres undefined) | inactive | –
CCC(C)CCCCCCCCCCCCCCC(=O)NCCc1cc(Br)c(OCCCNC(=O)C2=NO[C@@]3(CC(Br)=C(OC)C(Br)=CO3)[C@H]2O)c(Br)c1 (some centres undefined) | inactive | –
COC1=C(Br)C[C@]2(OC=C1Br)ON=C(C(=O)NCCCOc1c(Br)cc(C3CNC(=O)O3)cc1Br)[C@@H]2O (some centres undefined) | inactive | –
